This note sets out measurements from patent US20120219568A1, “EPIDITHIODIOXO[…] USES THEREOF IN TREATING CANCER” (priority 2011, published 2012).

In general, IC50 refers to the concentration that inhibits the measured activity by half. A high value points to weaker potency in that assay.

For assay [1], the system named is Hela. As to the kind of experiment: MTT growth inhibition, Hela. The class given is cell-based. As to conditions: Homo sapiens, Cervical Cancer, MTT assay. The procedure:
(§1) For cell viability assay, cells were seeded in wells of 96-well plates for 2 days and then treated with different concentrations of mushroom extract fractions or purified verticillin A for 2 days. The cells were then incubated with MTT (3-(4,5-dimethylthiazol-2-yl)-2,5-diphenyltetrazolium bromide) using the MTT assay kit (ATCC, Manassas, Va.) according to the manufacturer's instructions.
(§2) To determine whether verticillin A inhibits other types of tumor cell growth, Mammary carcinoma (Bcap-37 and MCF-7), heptocarcinoma (HepG2), cervical (HeLa), liver (SMMC-7721), lung (SPC-A1) cancer cells and T cell leukemia (Jurkat) were cultured in the presence of different concentrations of verticillin A and examined for the efforts of verticillin A on the growth rate of these tumor cells in vitro.

Assay [2] concerns SMMC-7721. As to the kind of experiment: MTT growth inhibition, SMMC-7721. It counts as cell-based. The following applies: Homo sapiens, Hepatoma, MTT assay. On the procedure:
as §1, §2
On the technique in general: Tetrazolium assays rely on reduction of a dye to a coloured formazan, in cell work by metabolically active cells.

For assay [3], the system named is Jurkat. As to the kind of experiment: MTT growth inhibition, Jurkat. The class given is cell-based. The following applies: Homo sapiens, T Cell Leukemia, MTT assay. On the procedure:
as §1, §2

In assay [4] the test system is HepG2 tumor. As to the kind of experiment: HepG2 tumor growth in athymic mice. The class given is in vivo. The following applies: intravenous injection. On the procedure:
To determine whether the growth inhibitory effect of verticillin A can be extended to in vivo tumor growth inhibition, HepG2 cells were injected subcutaneously to athymic mice. Tumor-bearing mice were then treated with verticillin A by intravenous injection.
(§3) Athymic mice were subcutaneously inoculated with human hepatoma HepG2 and colon carcinoma SW620 cells, respectively. The tumor-bearing mice were randomized into experimental groups. The control mice were given saline. The treatment group was intravenously injected with verticillin A at the doses of 1 and 2 mg/kg body weight. Tumor size was measured in 2 diameter with micrometer caliper at the indicate times to permit calculation of tumor volume, V=(a×b^2)/2, where “a” is the length and “b” is the width in millimeters. At the end of the experiment, all the animals were sacrificed, The tumor inhibitory rates were calculated using the following formula: [(mean tumor volume of control nude mice−mean tumor volume of treated nude mice)/mean tumor volume of control nude mice]×100%.

Assay [5] relates to 6 other human colon carcinoma cells. As to the kind of experiment: TRAIL sensitization in other colon carcinoma cells. As to conditions: verticillin A and TRAIL. It counts as cell-based. The procedure:
Cells were seeded in wells of 96-well plates for 2 days and then treated with different concentrations of mushroom extract fractions or purified verticillin A for 2 days. The cells were stained with propidium iodide (PI) (Trevigen, Gaithersburg, Md.) or PI plus annexin V-Alex Fluor 647 (Biolegend, San Diego, Calif.) and analyzed by flow cytometry.
The sensitization effects of verticillin A was examined in other types of tumor cells.

The subject of assay [6] is SW620 cells. As to the kind of experiment: SW620 growth with anticancer drugs, MTT assay. The class given is cell-based, human. The following applies: Verticillin A pretreatment, then Etoposide, Cisplatin, 5-FU or Doxorubicin. The procedure:
as §1
Etoposie, Cisplatin, 5-FU and Doxorubicin are commonly used cancer drugs that suppress tumor cell growth through their cytotoxicity. High cytotoxicity is often associated with high dose of their drugs. Furthermore, tumor cells often develop resistance to these cytotoxic drugs. To determine whether Verticillin A can increase the efficacy of these drugs and overcome drug resistance, the effectiveness of Verticillin A combined with these 4 drugs in suppression of tumor cell growth was tested in vitro. SW620 cell sensitivity to these drugs was first measured. SW620 cells are resistant to Etoposide but sensitive to 5-FU. […] SW620 cells were next pretreated with Verticillin A, followed by treatment with Etoposide (1 μg/ml), Cisplatin (1 μg/ml), 5-FU ([…]) and Doxorubicin (0.01 μg/ml), respectively.

Assay [7] has as its system SW620 tumor xenograft. As to the kind of experiment: SW620 tumor xenograft growth in athymic mice. The class given is in vivo. On the procedure: as §3
The disclosed observations indicate that verticillin A can dramatically increase TRAIL-induced tumor cell apoptosis. To determine whether these in vitro observations can be extended to enhance TRAIL-mediated tumor suppression in vivo, SW620 cells were injected subcutaneously to athymic mice, verticillin A and TRAIL, either used as single agent or in combination, were then injected to the tumor-bearing mice. Tumor growth rate were measured in different time points. Verticillin A can inhibit tumor cell growth in vitro at high dose and sensitize tumor cells to TRAIL-induced apoptosis at a low dose. […] As expected, SW620 tumors are resistant to TRAIL (Voelkel-Johnson C, et al. Mol Cancer Ther 2005 4(9):1320-7).

The test system of assay [8] is A-CDase. As to the kind of experiment: A-CDase protein level, Western blot. The following applies: after verticillin A treatment. It counts as cell-based, human. On the procedure: Tumor cells were lysed in lysis buffer containing 20 mM HEPES, pH 7.4, 20 mM NaCl, 10% glycerol, 1% Triton X-100, and a protease inhibitor cocktail (Calbiochem, La Jolla, Calif.). Cellular proteins were separated by 12% or 4-20% SDS-PAGE gradient gels, transferred to Immobilon-P membranes (Millipore, Bedford, Mass.) or nitrocellulose (Bio-Rad, Hercules, Calif.), and probed with the following primary antibodies: anti-FLIP (Cell Sinnaling, Danvers, Mass.) at 1:250; anti-survivin (Santa Cruz Biotech) at 1:100; anti-cIAP1 (cell signaling) at 1:250; anti-xIAP (cell Signaling) at 1:500; anti-Bad (Cell Signaling) at 1:1000; anti-Bax (Cell Signaling) at 1:2000; anti-Mcl-1 (Santa Cruz) at 1:100); anti-A-CDase (BD Biosciences) at 1:1000; anti-CytC (BD Biosciences) at 1:1000; and β-actin (Sigma, St Louis, Mo.) at 1:8000. The blots were then washed and incubated with horseradish peroxidase-conjugated anti-goat (Santa Cruz Biotech), anti-mouse or rabbit (Amersham-Pharmacia, Piscataway, N.J.) IgGs. Blots were detected using the ECL Plus Western detection kit (Amersham Pharmacia Biotech).
To elucidate the molecular mechanisms underlying verticillin A sensitization of tumor cells to TRAIL-mediated apoptosis, the protein levels of genes known to function in the mitochondrion-mediated apoptosis pathway were analyzed. […]

Assay [9] concerns BNIP3. As to the kind of experiment: BNIP3 expression level. The class given is cell-based, human. As to conditions: SW620 and HepG2 cells. The procedure: Because verticillin A enhances tumor cell apoptosis through the mitochondrion-dependent pathway, the expression levels of apoptosis-related genes of the mitochondrion-mediated apoptosis pathway was analyzed.
Assay [10] concerns BNIP3, IRF8, Neurog1, p15ink4b, RUNX3. As to the kind of experiment: Expression of genes with methylated promoters. It counts as cell-based, human. The following applies: SW620, verticillin A 0-50 nM. The procedure: To determine whether verticillin A inhibits DNA methylation in other gene promoters, 4 other genes (IRF8, Neurog1, p15ink4b, RUNX3) with known promoter DNA methylation in human colon carcinoma cells were selected. SW620 cells were treated with AzadC (0-1.0 μM) and verticillin A (0-50 nM), respectively, and analyzed for the expression of BNIP3 and these 4 genes.

In the case of `CN1C(=O)[C@]23SS[C@]1(C)C(=O)N2C1Nc2ccccc2[C@@]1(C12c4ccccc4NC1N1C(=O)[C@@]4(C)SS[C@]1(C(=O)N4C)[C@H]2O)[C@@H]3O` (stereo partly shown) [Verticillin A], the IC50 in assay [1] came to 122 nM; in assay [2] it was 80 nM; in assay [3], 37 nM. Moreover, in [4] (2 mg/kg body weight), the “HepG2 tumor growth inhibition” value was “significantly inhibited HepG2 tumor growth”. Moreover, the “HepG2 tumor growth inhibition, dose dependence” value in [4] (1 and 2 mg/kg body weight) is on record as “tumor growth inhibitory effects at a dose-dependent manner”. Besides, the “sensitization to TRAIL-induced apoptosis” value in assay [5] is reported as “sensitization effect of verticillin A was also observed”. The “tumor growth inhibitory effect of the drugs combined with Verticillin A” value in assay [6] is listed as “significantly increased the tumor growth inhibitory effects”. Besides, the “tumor suppression activity, verticillin A alone” value in assay [7] (0.125 mg/kg body weight) is “did not exhibit significant tumor suppression activity”. Further, the “tumor xenograft growth, combination treatment” value in assay [7] (low dose verticillin A (0.125 mg/kg) and TRAIL) is “significantly inhibited the tumor xenograft growth”. Besides, the “lowest dose enhancing the efficacy of TRAIL in suppressing human cancer growth” value in assay [7] (nude mice) worked out at 0.125 mg/kg. Moreover, in assay [8], the A-CDase expression level result is on record as “decreased after verticillin A treatment at a dose-dependent manner”. For the same compound, the BNIP3 expression level result in [9] is given as “increased BNIP3 expression level in a dose-dependent manner”. For the same compound, the “expression levels of BNIP3, IRF8, Neurog1, p15ink4b, RUNX3” value in [10] was “dramatically increased the expression levels of BNIP3 and these 4 genes”.
